According to paper PMC11012799 (Molecules, 2024):

Assays:
[1] = system: HeLa cells; assay: Cell cycle analysis (PI staining, flow cytometry); format: cell-based, human; settings: 24 h, concentration corresponding to IC50
Experimental: The MTT and LDH release assays provided evidence that aziridine phosphine oxides 5 and 7 inhibit cancer cell viability at concentrations equal to their respective IC50 values through antiproliferative mechanisms rather than by inducing cell death. It is expected that such observations will be reflected in cell cycle disturbances. To investigate which phase of the cell cycle is arrested, a cell cycle analysis was performed using propidium iodide (PI) staining. PI binds in proportion to the amount of DNA present in the cell. As a result of DNA replication, the cells in the S phase of the cell cycle contain more DNA than cells in the G1 phase. […] Before the exact analysis of the obtained results, we utilized a pre-gate to define the counted cells to be analyzed for cell cycle distribution. […] These findings confirmed the antiproliferative activity of these compounds.
Figure 4 Effects of 5 and 7 on cell cycle phase distribution in HeLa cells compared to untreated control. […] Data are expressed as mean ± SD of two independent experiments. Statistical significance in comparison with the untreated control, measured by two-way analysis of variance (ANOVA) followed by Bonferroni multiple comparison test, is indicated by asterisks: (*) p < 0.05, (**) p < 0.01, (***) p < 0.001.
Cell cycle analysis: The distribution of cell cycle phases was measured using flow cytometry and propidium iodide (PI) staining. The PI intercalates into the major groove of double-stranded DNA, producing a highly fluorescent signal when excited at 488 nm, with a broad emission centered around 600 nm. PI binds in proportion to the amount of DNA present in the cell. HeLa cells were seeded on 60 mm dishes at a density of 5 × 10^5 in 3 mL of Dulbecco’s Modified Eagle’s Medium F12 (DMEM-F12, Biowest, Nuaillé, France) supplemented with 10% fetal bovine serum (FBS, Biowest), 100 units/mL of penicillin G and 100 μg/mL of streptomycin (Biowest, Nuaillé, France) and incubated for 24 h at 37 °C and 5% CO2. Then, compounds 5 or 7 were added at a concentration corresponding to their IC50 values and the plate was incubated for the next 24 h. Untreated cells were used as a positive control. The cells were then harvested by trypsinization, suspended in culture medium (1 mL), centrifuged at 3600 rpm for 10 min, and washed twice with dPBS (Dulbecco’s phosphate-buffered saline, Cytogen–Polska Sp. z o.o, Zgierz, Poland). The cell sediment was resuspended in dPBS (600 μL) and fixed in 70% ice-cold ethanol. After storing the cells at 4 °C for 24 h, they were stained in PI staining solution (600 µL, 50 μg/mL of PI, and 100 μg/mL of RNAse A in dPBS) and incubated for 30 min at 37 °C in darkness. The cell cycle distribution was analyzed by flow cytometry using an LSRII (Becton Dickinson, Franklin Lakes, NJ, USA) instrument at 488 nm excitation and 535/617 emission wavelengths, and the cell cycle phase distribution from two independent experiments (10,000 cell counts/sample) was determined with the FlowJo 7.6.1 software (FlowJo, LLC, Ashland, OR, USA) using a built-in cell cycle analysis module (Watson pragmatic algorithm).

[2] = system: HeLa cells; assay: Intracellular ROS measurement (H2DCFDA, flow cytometry); format: cell-based, human; settings: 24 h, concentration equal to IC50, H2DCFDA staining
Experimental: The intracellular ROS levels were evaluated using 2′,7′-dichlorofluorescein diacetate (H2DCFDA) staining. This cell membrane-permeable probe is deacetylated by cellular esterases to a non-fluorescent compound, which is then oxidized by ROS to 2′,7′-dichlorofluorescein (DCF), which remains in cells, is not removed from them, and emits strong fluorescence that can be quantified using a flow cytometer. To evaluate oxidative stress, HeLa cells were treated with the respective compound at a concentration equal to its IC50 value for 24 h, followed by staining with H2DCFDA. […]
Figure 5 Intracellular ROS generation in HeLa cells after treatment with 5 (blue) and 7 (green) for 24 h at 37 °C and 5% CO2. […] Oxidative stress was evaluated using H2DCFDA by flow cytometry. Data are expressed as the mean ± SD of two experiments. Statistical significance in comparison with the untreated control, measured by two-way analysis of variance (ANOVA) followed by Bonferroni multiple comparison test, is indicated by asterisks: (*) p < 0.05.
Reactive oxygen species measurement: The intracellular level of ROS was analysed by staining with 2′,7′–dichlorofluorescein diacetate (H2DCFDA, Sigma-Aldrich, Darmstadt, Germany). […] This product is highly fluorescent and can be detected on a flow cytometer. […]

CC(C)[C@@H]1CN1c1ccccc1P(=O)(c1ccccc1)c1ccccc1 [Compound 5]
cell cycle arrest (phase distribution) [1]: significant cell arrest in the S phase | number of cells in the sub-G1 phase (indicative of apoptosis) [1]: significantly increased | stage of S-phase arrest (histograms of cell cycle distribution) [1]: cell arrest mainly in the early stages of the S phase | intracellular ROS levels compared to untreated control [2]: the effect was significant only for 5

CC(C)C[C@H]1CN1c1ccccc1P(=O)(c1ccccc1)c1ccccc1 [Compound 7]
cell cycle arrest (phase distribution) [1]: significant cell arrest in the S phase | number of cells in the sub-G1 phase (indicative of apoptosis) [1]: significantly increased | stage of S-phase arrest (histograms of cell cycle distribution) [1]: more effective in the late S phase | intracellular ROS levels compared to untreated control [2]: increase in ROS levels
